Values quoted from earlier work, collected in patent US20160375049A1, “COMPOSITIONS” (GLOBALACORN LTD, priority 2013, published 2016).

Key:
[1] = tested on: nociception; details: in vivo
[2] = tested on: inflammatory and neuropathic pain models; details: systemic administration
[3] = biological target: T1, P2X3 receptors (Homo sapiens, UniProt P56373)
T1 sequence (P56373 1-397): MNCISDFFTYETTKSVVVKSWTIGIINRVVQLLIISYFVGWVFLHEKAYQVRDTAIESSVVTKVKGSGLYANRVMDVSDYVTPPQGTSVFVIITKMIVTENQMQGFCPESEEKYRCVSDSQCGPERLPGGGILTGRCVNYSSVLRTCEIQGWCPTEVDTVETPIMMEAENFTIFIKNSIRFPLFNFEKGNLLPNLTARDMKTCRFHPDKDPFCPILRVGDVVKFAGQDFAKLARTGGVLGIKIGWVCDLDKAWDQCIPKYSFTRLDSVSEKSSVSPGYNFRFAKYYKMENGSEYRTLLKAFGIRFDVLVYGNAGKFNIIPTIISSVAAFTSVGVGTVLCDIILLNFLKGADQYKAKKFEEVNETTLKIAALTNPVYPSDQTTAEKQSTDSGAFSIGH

[4] = tested on: persistent pain; details: in vivo
[5] = tested on: acute noxious stimulation; details: in vivo

Compound	anti-nociception in animal models [1]	nociception in inflammatory and neuropathic pain models [2]	binding to P2X3 receptors, concentration range [3]	persistent pain in formalin and acetic acid-induced abdominal constriction tests [4]	activity in models of acute noxious stimulation [5]
COc1cc(Cc2cnc(N)nc2N)c(C(C)C)cc1OC [RO-3]	induce anti-nociception				
O=C(O)c1cc(C(=O)O)c(C(=O)N(Cc2cccc(Oc3ccccc3)c2)[C@H]2CCCc3ccccc32)cc1C(=O)O [A-317491]		effectively reduced nociception	micromolar range	effectively blocked persistent pain	generally inactive
